Data on 1 compound can be found in patent US6663897B2, “Oral itraconazole formulations and methods of making the same” (DSM IP Assets B.V., priority 2001, dated 2003).

The nature of data set [1]: Stability study under accelerated conditions (ICH guidelines). Format: physicochemical. The settings on record: three months. The method, then: The batch samples prepared under Example 1 were evaluated for stability under accelerated conditions under ICH guidelines and three months stability results are furnished in Table 4. Physical Examination Specification: Size 0 elongated hard gelatin capsule with an opaque white cap and a natural body. Capsules were substantially free from rough edges and spots and were filled with off white colored coated microcrystalline cellulose spheres.

The conditions of data set [2]: cited from earlier work.

Structures are written as SMILES. Some results are limits rather than exact numbers.

Consider `CCC(C)n1ncn(-c2ccc(N3CCN(c4ccc(OCC5COC(Cn6cncn6)(c6ccc(Cl)cc6Cl)O5)cc4)CC3)cc2)c1=O` (racemic) [Itraconazole, (±)-cis-4-[4-[4-[4-[[2-(2,4-dichlorophenyl)-2-(1H-1,2,4-triazol-1-ylmethyl)-1,3-dioxolan-4-yl]methoxy]phenyl]-1-piperazinyl]phenyl]-2,4-dihydro-2-(1-methylpropyl)-3H-1,2,4-triazol-3-one], for which, in data set [1], the degradation of itraconazole result is recorded as “no significant degradation”. The “0.1 N Hydrochloric acid solubility” value in data set [2] (0.1 N Hydrochloric acid) is less than 6 micrograms per milliliter. Also, the water solubility entry in data set [2] (water) was “less than 1 microgram per milliliter”.
